The values that follow come from ChEMBL document CHEMBL5390218, “Benzimidazole derivatives as tubulin polymerization inhibitors: Design, synthesis and in vitro cytotoxicity studies” (Bioorg Med Chem Lett, 2023).

One series deals with SK-MEL-28. Description: Anticancer activity against human SK-MEL-28 cells assessed as inhibition in cell growth measured after 72 hrs by MTT assay. The format is functional, cell-based. The note with it: SK-MEL-28, 72 h.
A further series concerns HCT-116. Description: Anticancer activity against human HCT-116 cells assessed as inhibition in cell growth measured after 72 hrs by MTT assay. The note with it: HCT-116, 72 h. The format is functional, cell-based. In general terms: Formazan colour is commonly taken as a measure of viable cells.
A short description of series [1]: Cytotoxicity against NRK-52E cells assessed as inhibition in cell growth measured after 72 hrs by MTT assay. The format is toxicity, cell-based. The conditions noted are these: rat.
The test system of the next series is A549. Description: Anticancer activity against human A549 cells assessed as inhibition in cell growth measured after 72 hrs by MTT assay. The format is functional, cell-based. The conditions noted are these: A549, 72 h.
The subject of the next series is MCF7. Description: Anticancer activity against human MCF7 cells assessed as inhibition in cell growth measured after 72 hrs by MTT assay. The note with it: MCF7, 72 h. The format is functional, cell-based.
The next series deals with B16-F10. Description: Anticancer activity against mouse B16-F10 cells assessed as inhibition in cell growth measured after 72 hrs by MTT assay. The note with it: B16-F10, 72 h. The format is functional, cell-based.

As usually defined, the IC50 is the concentration that gives 50% inhibition.

Consider `COc1cc(-c2nc3cc(F)ccc3[nH]2)ccc1OCC(=O)N1CCN(c2ncccn2)CC1`, for which the IC50 in the series on SK-MEL-28 was 7.71 µM; in the series with HCT-116 it was > 20 µM; in the series on A549, 14 µM; in the series with MCF7, > 20 µM; in the series on B16-F10 it was 16.1 µM. In series [1], the IC50 at 72 h was > 100 µM.

Consider `COc1cc(-c2nc3ccccc3[nH]2)ccc1OCC(=O)N1CCCC1`, for which the IC50 in the series on SK-MEL-28, in the series with HCT-116, in the series with A549, in the series on MCF7 and in the series with B16-F10 was > 20 µM in each case. In addition, the IC50 at 72 h in series [1] is > 100 µM.

Take `COc1cc(-c2nc3cc(C)ccc3[nH]2)ccc1OCC(=O)N1CCCCC1`: the IC50 in the series on SK-MEL-28, with HCT-116, in the series on A549, in the series on MCF7 and with B16-F10 was > 20 µM each time. Moreover, the IC50 at 72 h in series [1] was > 100 µM.

Consider `COc1cc(-c2nc3cc(F)ccc3[nH]2)ccc1OCC(=O)N1CCN(C(=O)OC(C)(C)C)CC1`, for which the IC50 with SK-MEL-28, in the series on HCT-116, with A549, with MCF7 and in the series on B16-F10 was > 20 µM each time. Further, the IC50 at 72 h in series [1] was > 100 µM.

For the compound `COc1cc(-c2nc3ccccc3[nH]2)ccc1OCC(=O)N1CCc2ccccc21`, the IC50 with SK-MEL-28 was 3.82 µM; with HCT-116, > 20 µM; in the series on A549, > 20 µM; with MCF7 it was 7.68 µM; in the series on B16-F10 it was > 20 µM. Besides, in series [1], the IC50 at 72 h is > 100 µM.

In the case of `COc1ccc2[nH]c(-c3ccc(OCC(=O)N4CCCCC4)c(OC)c3)nc2c1`, the IC50 with SK-MEL-28, in the series on HCT-116, in the series on A549, in the series with MCF7 and with B16-F10 was > 20 µM in each case. The IC50 at 72 h in series [1] was > 100 µM.

As to `COc1ccc2[nH]c(-c3ccc(OCC(=O)N4CCN(c5ncccn5)CC4)c(OC)c3)nc2c1`, the IC50 with SK-MEL-28 was 6.13 µM; with HCT-116 it was > 20 µM; in the series on A549, 8.35 µM; in the series on MCF7, > 20 µM; in the series with B16-F10 it was 12.5 µM. Also, the IC50 at 72 h in series [1] was > 100 µM.

As to `COc1cc(-c2nc3ccccc3[nH]2)ccc1OCC(=O)N1CCOCC1`, the IC50 in the series with SK-MEL-28, in the series on HCT-116, in the series on A549, in the series on MCF7 and in the series on B16-F10 was > 20 µM in each case. In series [1], the IC50 at 72 h is > 100 µM.

On to `COc1cc(-c2nc3ccccc3[nH]2)ccc1OCC(=O)N1CCN(C(=O)OC(C)(C)C)CC1`, for which the IC50 with SK-MEL-28, in the series with HCT-116, with A549, in the series with MCF7 and in the series on B16-F10 was > 20 µM each time. Also, the IC50 at 72 h in series [1] was > 100 µM.

For `COc1cc(-c2nc3ccccc3[nH]2)ccc1OCC(=O)N1CCCCC1`, the IC50 in the series on SK-MEL-28, with HCT-116, in the series with A549, in the series with MCF7 and in the series with B16-F10 was > 20 µM in each case. Moreover, the IC50 at 72 h in series [1] is > 100 µM.

With `COc1ccc2[nH]c(-c3ccc(OCC(=O)N4CCc5ccccc54)c(OC)c3)nc2c1`, the IC50 is 3.32 µM with SK-MEL-28; 8.39 µM in the series on HCT-116; 8.05 µM in the series with A549; 7.78 µM in the series with MCF7; 12.6 µM in the series with B16-F10. Further, the IC50 at 72 h in series [1] is > 100 µM.

Consider `COc1cc(-c2nc3cc(C)ccc3[nH]2)ccc1OCC(=O)N1CCc2ccccc21`, for which the IC50 in the series with SK-MEL-28 was > 20 µM; in the series on HCT-116 it was > 20 µM; in the series with A549, 6.89 µM; in the series with MCF7, > 20 µM; in the series on B16-F10, 15.6 µM. Moreover, the IC50 at 72 h in series [1] is > 100 µM.

Consider `COC(=O)Nc1nc2cc(C(=O)c3cccs3)ccc2[nH]1` [NOCODAZOLE], for which the IC50 in the series with SK-MEL-28 worked out at 8.59 µM; with HCT-116, 3.5 µM; with A549, 5.93 µM; with MCF7, 4.13 µM; in the series with B16-F10 it was 8.58 µM.
